Results on eleven molecules are retold here after ChEMBL document CHEMBL1201862, “PubChem BioAssay data set” (2004).

Each structure is given as a SMILES string.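 Five compound concentrations were applied to cells in 96-well plates for 48 hours; endpoints were derived by simple linear interpolation of the resulting dose-response curve. GI50 is the concentration that inhibits growth by half.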 Active and inactive are the calls of the source. No stated cut-off is given here; in the data, active = GI50 up to about 1.1 µM and inactive = higher.

Test systems include 786-0; A498; A549; COLO 205; EKVX; HL-60; HT-29; LOX IMVI; MOLT-4; OVCAR-4; OVCAR-5; RPMI-8226; SF-539; SK-OV-3; SW-620; TK-10; UACC-257; UACC-62; Hs-578T.
What all share (assay): NCI-60 cell line screen, 48 h

With `N#C/C(=C\c1ccc(O)c(O)c1)C(=O)NC1CCC(CC2CCC(NC(=O)/C(C#N)=C/c3ccc(O)c(O)c3)CC2)CC1` (configuration not stated), the GI50 with 786-0 was 1.27 µM (inactive); in the experiment with A498 it was 4.7 µM (inactive); in the experiment on A549, 0.466 µM (active); in the experiment on COLO 205, 1.12 µM (inactive); with EKVX it was 3.48 µM (inactive); in the experiment with HL-60 it was 0.902 µM (active). Moreover, the GI50 with HT-29 was 1.32 µM (inactive); in the experiment on LOX IMVI, 0.356 µM (active); in the experiment with MOLT-4 it was 0.743 µM (active); with OVCAR-4, 3.32 µM (inactive); in the experiment on OVCAR-5 it was 2.08 µM (inactive); with RPMI-8226 it was 0.693 µM (active). Besides, the GI50 was 0.536 µM (active) in the experiment on SF-539; 3.82 µM (inactive) with SK-OV-3; 0.465 µM (active) in the experiment on SW-620; 4.02 µM (inactive) in the experiment on TK-10; 2.84 µM (inactive) in the experiment on UACC-257; 1.59 µM (inactive) in the experiment with UACC-62.

For `O=S(=O)([N-]c1nc2ccccc2nc1-[n+]1ccccc1)c1ccccc1`, the GI50 in the experiment on 786-0 was > 100 µM (inactive); in the experiment with A549 it was > 100 µM (inactive); in the experiment with COLO 205, > 100 µM (inactive); in the experiment with EKVX it was > 100 µM (inactive); with HL-60, 22.1 µM (inactive); with HT-29, > 100 µM (inactive). For the same molecule, the GI50 in the experiment with Hs-578T was > 100 µM (inactive); with LOX IMVI, > 100 µM (inactive); with MOLT-4, 23.1 µM (inactive); with OVCAR-4, > 100 µM (inactive); with OVCAR-5, > 100 µM (inactive); in the experiment on RPMI-8226, 74 µM (inactive). Besides, the GI50 in the experiment with SF-539 was > 100 µM (inactive); with SK-OV-3 it was > 100 µM (inactive); with TK-10, 71.4 µM (inactive); in the experiment on UACC-257, > 100 µM (inactive); in the experiment on UACC-62, 93.1 µM (inactive).

As for `O=C(CCc1cc(-c2ccccc2)nc(S)n1)N(Cc1ccccc1)Cc1ccccc1`, the GI50 with 786-0, in the experiment on A498, in the experiment on A549, with COLO 205, in the experiment on EKVX and with HL-60 was > 100 µM (inactive) throughout. The GI50 in the experiment on HT-29, in the experiment on LOX IMVI, with MOLT-4, with OVCAR-4, with OVCAR-5 and in the experiment on RPMI-8226 was > 100 µM (inactive) in each case. The GI50 in the experiment on SF-539, in the experiment on SK-OV-3, with SW-620, with TK-10, in the experiment on UACC-257 and in the experiment with UACC-62 was > 100 µM (inactive) in each case.

On to `CCOC(=O)CC1COc2ccc3c(c21)OCO3` (configuration not stated), for which the GI50 in the experiment with 786-0, in the experiment with A498, in the experiment on A549, in the experiment with COLO 205, in the experiment with EKVX and in the experiment with HL-60 was > 100 µM (inactive) in each case. The GI50 with HT-29, in the experiment on LOX IMVI, in the experiment on MOLT-4, in the experiment with OVCAR-4, with OVCAR-5 and with RPMI-8226 was > 100 µM (inactive) each time. Besides, the GI50 in the experiment on SF-539, in the experiment with SK-OV-3, in the experiment with SW-620, with TK-10, in the experiment on UACC-257 and in the experiment on UACC-62 was > 100 µM (inactive) each time.

For the molecule `COc1ccc(/C=N/NC(=O)CSc2nc(-c3ccccc3)c(-c3ccccc3)[nH]2)cc1OC`, the GI50 in the experiment on 786-0 is 28.7 µM (inactive); in the experiment with A498, 26.6 µM (inactive); in the experiment on A549, 45.9 µM (inactive); with COLO 205, 21.2 µM (inactive); in the experiment on EKVX, 31 µM (inactive); in the experiment on HL-60, 20.3 µM (inactive). In addition, the GI50 is 29.8 µM (inactive) in the experiment on HT-29; 20.5 µM (inactive) with LOX IMVI; 16 µM (inactive) in the experiment on MOLT-4; 31.3 µM (inactive) in the experiment with OVCAR-4; 22 µM (inactive) with OVCAR-5; 20.3 µM (inactive) with RPMI-8226. Besides, the GI50 is 22.4 µM (inactive) in the experiment with SF-539; 26.4 µM (inactive) with SK-OV-3; 29.9 µM (inactive) in the experiment on SW-620; 35.4 µM (inactive) in the experiment with TK-10; 27.1 µM (inactive) in the experiment on UACC-257; 23.5 µM (inactive) in the experiment with UACC-62.

Regarding `COC(=O)C(CC(=O)Nc1ccc(Cl)c(Cl)c1)C(=O)C(=O)NC1C2CC3CC(C2)CC1C3` (configuration not stated), the GI50 in the experiment on 786-0 is > 100 µM (inactive); in the experiment on A498 it was > 100 µM (inactive); in the experiment on A549 it was > 100 µM (inactive); with COLO 205, > 100 µM (inactive); in the experiment on EKVX, 54.6 µM (inactive); in the experiment with HL-60, > 100 µM (inactive). The GI50 in the experiment on HT-29, in the experiment on LOX IMVI, with MOLT-4, in the experiment on OVCAR-4, with OVCAR-5 and with RPMI-8226 was > 100 µM (inactive) in each case. The GI50 was > 100 µM (inactive) in the experiment on SF-539; > 100 µM (inactive) in the experiment with SK-OV-3; > 100 µM (inactive) with SW-620; > 100 µM (inactive) with TK-10; > 100 µM (inactive) in the experiment with UACC-257; 92.7 µM (inactive) with UACC-62.

For `Cc1c(/C=N/N=C/c2[nH]c(C(=O)OC(C)(C)C)c(C)c2C)[nH]c(C(=O)OC(C)(C)C)c1C`, the GI50 was 50.8 µM (inactive) with 786-0; > 100 µM (inactive) in the experiment on A498; > 100 µM (inactive) in the experiment with A549; > 100 µM (inactive) with COLO 205; > 100 µM (inactive) in the experiment with EKVX; 43.3 µM (inactive) with HL-60. Also, the GI50 was > 100 µM (inactive) with HT-29; 61 µM (inactive) in the experiment on LOX IMVI; > 100 µM (inactive) in the experiment on MOLT-4; > 100 µM (inactive) in the experiment on OVCAR-4; > 100 µM (inactive) in the experiment with OVCAR-5; 90.6 µM (inactive) in the experiment with RPMI-8226. In addition, the GI50 with SF-539, in the experiment on SK-OV-3, with SW-620, in the experiment with TK-10, in the experiment with UACC-257 and in the experiment with UACC-62 was > 100 µM (inactive) in each case.

`CCCCCCCCCCC(O)CCCCCCC(=O)O` (configuration not stated): the GI50 with 786-0 was 24.5 µM (inactive); in the experiment with A498, 23.2 µM (inactive); in the experiment with A549, 18.2 µM (inactive); with COLO 205, 15.7 µM (inactive); in the experiment with EKVX it was 31.7 µM (inactive); with HL-60, 8.05 µM (inactive). Also, the GI50 was 19.9 µM (inactive) in the experiment on HT-29; 15.8 µM (inactive) in the experiment on LOX IMVI; 12.7 µM (inactive) in the experiment with MOLT-4; 39.1 µM (inactive) in the experiment on OVCAR-4; 29.4 µM (inactive) in the experiment on OVCAR-5; 10.2 µM (inactive) in the experiment on RPMI-8226. Also, the GI50 was 24.3 µM (inactive) in the experiment with SF-539; 78.3 µM (inactive) with SK-OV-3; 29.9 µM (inactive) with SW-620; 65.9 µM (inactive) in the experiment on TK-10; 69.3 µM (inactive) in the experiment with UACC-257; 19.8 µM (inactive) in the experiment with UACC-62.

Consider `CC1OC(OCC2OC(Oc3c(-c4ccc(O)cc4)oc4cc(O)cc(O)c4c3=O)C(OC3OCC(O)(CO)C3O)C(O)C2O)C(O)C(O)C1O` (configuration not stated), for which the GI50 with 786-0 was 90.8 µM (inactive); in the experiment with A498, > 100 µM (inactive); in the experiment with A549, > 100 µM (inactive); in the experiment on COLO 205, 38.1 µM (inactive); with EKVX, > 100 µM (inactive); in the experiment with HL-60, 21.2 µM (inactive). For the same molecule, the GI50 in the experiment with HT-29 is > 100 µM (inactive); in the experiment on LOX IMVI, 51.9 µM (inactive); with MOLT-4, > 100 µM (inactive); with OVCAR-4 it was > 100 µM (inactive); with OVCAR-5 it was > 100 µM (inactive); with RPMI-8226 it was > 100 µM (inactive). For the same molecule, the GI50 in the experiment with SF-539 is > 100 µM (inactive); with SK-OV-3, > 100 µM (inactive); in the experiment on SW-620, 79.1 µM (inactive); in the experiment with TK-10 it was > 100 µM (inactive); in the experiment on UACC-257 it was > 100 µM (inactive); in the experiment with UACC-62 it was > 100 µM (inactive).

As to `CCOC(=O)c1oc2c(OC)ccc3c2c1CCC3`, the GI50 with 786-0, in the experiment on A498, in the experiment with A549, in the experiment with COLO 205, in the experiment with EKVX and in the experiment on HL-60 was > 100 µM (inactive) in each case. The GI50 with HT-29 was 37.7 µM (inactive); with LOX IMVI it was > 100 µM (inactive); in the experiment with MOLT-4 it was 37.1 µM (inactive); in the experiment on OVCAR-4 it was > 100 µM (inactive); with OVCAR-5, > 100 µM (inactive); in the experiment with RPMI-8226, > 100 µM (inactive). For the same molecule, the GI50 is > 100 µM (inactive) in the experiment on SF-539; > 100 µM (inactive) in the experiment with SK-OV-3; > 100 µM (inactive) in the experiment on SW-620; > 100 µM (inactive) in the experiment on TK-10; 0.404 µM (active) in the experiment on UACC-257; > 100 µM (inactive) in the experiment with UACC-62.

As to `C/C=C/C1=C(Cl)C(=O)[C@@H](Cl)[C@@]1(O)C(=O)OC` [(+)-CRYPTOSPORIPSIN], the GI50 is 4.94 µM (inactive) in the experiment with 786-0; 5.77 µM (inactive) in the experiment on A498; 9.86 µM (inactive) in the experiment with A549; 1.5 µM (inactive) in the experiment with COLO 205; 3.65 µM (inactive) in the experiment on EKVX; 1.7 µM (inactive) in the experiment with HL-60. Further, the GI50 was 3.46 µM (inactive) in the experiment with HT-29; 2.24 µM (inactive) in the experiment with LOX IMVI; 3.66 µM (inactive) in the experiment on MOLT-4; 2.09 µM (inactive) in the experiment on OVCAR-4; 11.2 µM (inactive) with OVCAR-5; 2.28 µM (inactive) in the experiment with RPMI-8226. Besides, the GI50 was 2.19 µM (inactive) in the experiment on SF-539; 15.1 µM (inactive) in the experiment with SK-OV-3; 1.06 µM (active) with SW-620; 3.13 µM (inactive) in the experiment on TK-10; 1.6 µM (inactive) in the experiment on UACC-257; 1.65 µM (inactive) in the experiment on UACC-62.
